Values after ≈ are worked out from the molar mass of the structure shown. Non-standard residues stand in square brackets, D forms with d. Residues, ends and D or L forms follow the SMILES beside them. Gly(N-2-aminoethyl) = NCCNCC(=O)O; Gly(N(CH2)3NH2) = NCCCNCC(=O)O; Nphe = O=C(O)CNCc1ccccc1; Nlys = NCCCCNCC(=O)O
Legend:
[1] = Relative hydrophobicity by RP-HPLC (% MeCN at peak elution); format: physicochemical; details: RP-HPLC gradient 0 → 60% B during 10 min; % MeCN at peak elution calculated from retention time
Protocol: The relative hydrophobicity of each peptidomimetic was measured by reverse-phase high-performance liquid chromatography (RP-HPLC). Typically, the RP-HPLC retention time (or percentage acetonitrile at peak elution) constitutes the preferred measure that allows for comparison of relative hydrophobicity, while log P values of polycationic peptides or peptidomimetics normally are considered unsuitable due to the extreme hydrophilic nature of such compounds [11, 45, 57, 58, 59, 60]. […] For both subgroups III (with cationic amino acid residues and the peptoid analogue of Phe, NPhe, i.e., 9–12) and IV (with cationic amino acid residues and the peptoid analogue of hPhe, NhPhe, i.e., 13–16) only minor differences in hydrophobicity were seen. These observations infer that, when the cationic residues are of a peptoid nature, the side-chain length of these has a […] influence on the hydrophobicity. […] Thus, introduction of additional six methylene groups results, as expected, in increased hydrophobicity.
Starting materials and solvents were purchased from commercial suppliers (Iris Biotech, Markredwitz, Germany; Fluorochem, Hadfield, United Kingdom; and Merck, Darmstadt, Germany) and used without further purification. Water used for analytical and preparative high-performance liquid chromatography (HPLC) was filtered through a 0.22-μm Millipore membrane filter. Purity and retention time of each peptidomimetic were determined by analytical UHPLC by using a Phenomenex Luna C18(2) HST column (100 mm × 3 mm; particle size: 2.5 μm; pore size: 100 Å) on a Shimadzu Prominence and Shimadzu Nexera system using an aqueous acetonitrile (MeCN) gradient with 0.1% trifluoroacetic acid (TFA) added (eluent A: 5:95 MeCN–H2O + 0.1% TFA, eluent B: 95:5 MeCN–H2O + 0.1% TFA); a flow rate of 0.5 mL/min was used. For elution of peptidomimetics, a linear gradient of 0% to 60% B during 10 min was used with UV detection at λ = 220 nm. […] For each peptidomimetic, the percentage of MeCN at peak elution was calculated from the retention time by using the following formula:(1) %MeCN = 0.95 (0.6Rt/10 min.) + 0.05 (1−0.6Rt/10 min.).

A. baumannii ATCC 19606 = format: cell-based; details: ATCC 19606, 20 h
Protocol: (§1) MIC values were evaluated by using the modified Hancock lab protocol in non-binding polystyrene microtitre plates, with bacterial suspensions of ∼2 × 10^5 CFU/mL in Mueller-Hinton broth (Difco, Sparks MD, USA), with Mg^2+ and Ca^2+ concentrations of 4 mg/L each. The compounds were dissolved in H2O and diluted in 0.01% acetic acid, 0.2% BSA (final concentration). Aliquots of 11 µL of 10 × test compounds were then transferred to the appropriate wells with bacterial suspensions. For preparation and transfer of the solutions of the compounds, low-binding sterile tubes and tips (Axygen, Union City CA, USA) were used. After 20 h incubation of covered plates at 35 °C (±2 °C) with circular shaking at 220 rpm, the MICs were read. The antibacterial activity of peptidomimetics was tested against E. coli ATCC 25922, K. pneumoniae ATCC 13883, P. aeruginosa ATCC 27853, P. aeruginosa PAO1, A. baumannii ATCC 19606, S. aureus ATCC 29213, and E. faecalis ATCC 29212.

E. coli ATCC 25922 = format: cell-based; details: ATCC 25922, 20 h
Protocol: as §1

E. faecalis ATCC 29212 = format: cell-based; details: ATCC 29212, 20 h
Protocol: as §1

K. pneumoniae ATCC 13883 = format: cell-based; details: ATCC 13883, 20 h
Protocol: as §1

P. aeruginosa ATCC 27853 = format: cell-based; details: ATCC 27853, 20 h
Protocol: as §1

P. aeruginosa PAO1 = format: cell-based; details: PAO1, 20 h
Protocol: as §1

S. aureus ATCC 29213 = format: cell-based; details: ATCC 29213, 20 h
Protocol: as §1

in vitro [2] = format: cell-based; details: human
Protocol: (§2) Side effects affecting cell viability were estimated on the HepG2 cell line ATCC HB-8065. In brief, HepG2 cells were seeded in flat-bottomed 96-well plates at a concentration of 5000 cells per well. At 80−90% confluency, the cells were incubated for 24 h in a humidified incubator (5% CO2, 37 °C). The medium was removed, and the cells were incubated for 48 h in a humidified incubator (5% CO2, 37 °C) with compounds in two-fold serial dilutions. An MTT assay was then performed as previously described. In brief, after incubation with the test compounds, the culture medium was removed and fresh medium with 0.2 mg/mL MTT was added in each well of the plate. After incubation (3 h, 37 °C, 5% CO2), the medium with MTT was removed, and 200 μL dimethyl sulfoxide were added at once to each sample. Absorbance of MTT was measured using spectrophotometer TECAN Infinite M1000 at 540 nm. The relative viability was calculated by using the formula: ODtreated cells × 100/ODcontrol cells. The IC50 values are calculated by using the program Graph Pad Prism® 5.0. For all compounds, the test range was 10–1280 μg/mL.

[3] = test system: HepG2 cell line ATCC HB-8065; test: in vitro; format: cell-based; details: 48 h
Protocol: as §2

in vitro [4] = format: cell-based; details: human, Hemolytic Activity (percentage hemolysis)
Protocol: The lysis of human red blood cells was measured as previously described, with modifications. In brief, freshly drawn human red blood cells (hRBCs) were washed three times with PBS buffer and centrifuged two times for 5 min at 2500 rpm. A two-fold serial dilution of peptidomimetics in PBS buffer was added to each well in a sterile polypropylene V-bottom 96-well plate to the total volume of 75 μL. A 0.5% v/v hRBC suspension (75 μL in PBS buffer) was added to each well to reach a final volume of 150 μL in each well. The plate was incubated (37 °C) for 60 min, and then the cells were subsequently pelleted by centrifugation at 1000 rpm for 5 min. The supernatants (50 μL) were transferred to clear, flat-bottomed plastic 96-well plates. The concentration of hemoglobin was detected by measuring the OD at 405 nm. The OD of cells incubated with 0.1% SDS defined 100% hemolysis, while the OD of cells incubated with PBS buffer defined 0% hemolysis. The concentrations tested were 200, 400, and 800 μg/mL (only average values for the highest concentration are stated in Table 2).

[5] = set-up: method as in PMID 29198866; details: peptoid oligomers; cited from earlier work
human red blood cells = details: cited from earlier work

| Molecule | Hydrophobicity (% MeCN at elution) [1] [%] | MIC (A. baumannii ATCC 19606) [µg/mL] | MIC (E. coli ATCC 25922) [µg/mL] | MIC (E. faecalis ATCC 29212) [µg/mL] | MIC (K. pneumoniae ATCC 13883) [µg/mL] | MIC (P. aeruginosa ATCC 27853) [µg/mL] | MIC (P. aeruginosa PAO1) [µg/mL] | MIC (S. aureus ATCC 29213) [µg/mL] | viability at 48 h, 1280 µg/mL (in vitro [2]) [%] | IC50 for inhibiting growth of HepG2 cells [3] [µg/mL] | hemolysis at 60 min, 800 µg/mL (in vitro [4]) [%] | Hydrophobicity (% MeCN at peak elution) [5] [% MeCN] | Concentration resulting in 10% hemolysis (human red blood cells) [µM] |
| --- | --- | --- | --- | --- | --- | --- | --- | --- | --- | --- | --- | --- | --- |
| NCCCCNCC(=O)N[C@@H](Cc1ccccc1)C(=O)N(CCCCN)CC(=O)N[C@@H](Cc1ccccc1)C(=O)N(CCCCN)CC(=O)N[C@@H](Cc1ccccc1)C(=O)N(CCCCN)CC(=O)N[C@@H](Cc1ccccc1)C(=O)N(CCCCN)CC(=O)N[C@@H](Cc1ccccc1)C(=O)N(CCCCN)CC(=O)N[C@@H](Cc1ccccc1)C(N)=O [Peptidomimetic 3] (H-[Nlys]F[Nlys]F[Nlys]F[Nlys]F[Nlys]F[Nlys]F-NH2) | 35.6 | >64 | 8 to 16 | >64 | 32 (≈ 19.2 µM) | >64 | >64 | >64 | 52 | 1280 | 8 |  |  |
| NCCCNCC(=O)N[C@@H](Cc1ccccc1)C(=O)N(CCCN)CC(=O)N[C@@H](Cc1ccccc1)C(=O)N(CCCN)CC(=O)N[C@@H](Cc1ccccc1)C(=O)N(CCCN)CC(=O)N[C@@H](Cc1ccccc1)C(=O)N(CCCN)CC(=O)N[C@@H](Cc1ccccc1)C(=O)N(CCCN)CC(=O)N[C@@H](Cc1ccccc1)C(N)=O [Peptidomimetic 2] (H-[Gly(N(CH2)3NH2)]F[Gly(N(CH2)3NH2)]F[Gly(N(CH2)3NH2)]F[Gly(N(CH2)3NH2)]F[Gly(N(CH2)3NH2)]F[Gly(N(CH2)3NH2)]F-NH2) | 35.7 | >64 | 8 to 16 | >64 | 64 (≈ 40.4 µM) | >64 | >64 | >64 | 62 | >1280 | 5 |  |  |
| H-(NLys-Nspe-Nspe)4-NH2 |  |  |  |  |  |  |  |  |  |  |  | 53.6 | 9.1 |
| NCCCC[C@H](NC(=O)CN(Cc1ccccc1)C(=O)[C@H](CCCCN)NC(=O)CN(Cc1ccccc1)C(=O)[C@H](CCCCN)NC(=O)CN(Cc1ccccc1)C(=O)[C@H](CCCCN)NC(=O)CN(Cc1ccccc1)C(=O)[C@H](CCCCN)NC(=O)CN(Cc1ccccc1)C(=O)[C@@H](N)CCCCN)C(=O)N(CC(N)=O)Cc1ccccc1 [Peptidomimetic 11] (H-K[Nphe]K[Nphe]K[Nphe]K[Nphe]K[Nphe]K[Nphe]-NH2) | 36.9 | >64 | 4 to 8 | >64 | 64 (≈ 38.3 µM) | 4 (≈ 2.4 µM) | 8 to 16 | >64 | 76 | >1280 | 10 |  |  |
| NCCNCC(=O)N[C@@H](Cc1ccccc1)C(=O)N(CCN)CC(=O)N[C@@H](Cc1ccccc1)C(=O)N(CCN)CC(=O)N[C@@H](Cc1ccccc1)C(=O)N(CCN)CC(=O)N[C@@H](Cc1ccccc1)C(=O)N(CCN)CC(=O)N[C@@H](Cc1ccccc1)C(=O)N(CCN)CC(=O)N[C@@H](Cc1ccccc1)C(N)=O [Peptidomimetic 1] (H-[Gly(N-2-aminoethyl)]F[Gly(N-2-aminoethyl)]F[Gly(N-2-aminoethyl)]F[Gly(N-2-aminoethyl)]F[Gly(N-2-aminoethyl)]F[Gly(N-2-aminoethyl)]F-NH2) | 37.5 | >64 | 4 to 8 | >64 | 64 (≈ 42.6 µM) | 64 (≈ 42.6 µM) | >64 | >64 | 49 | 1280 | 7 |  |  |
